Experimental data reported in ChEMBL document CHEMBL4725384, “Monoaryl derivatives as transthyretin fibril formation inhibitors: Design, synthesis, biological evaluation and structural analysis” (Bioorg Med Chem, 2020).
Calls of active or inactive are those of the source. No cut-off for these calls is given here.

Legend:
[1] = target: Transthyretin (Homo sapiens) (UniProt P02766); assay: Stabilization of wild type human transthyretin expressed in Escherichia coli BL21(DE3) assessed as fibril formation at 7.2 uM preincubated for 30 mins with transthyretin followed by measuring after 72 hrs maintaining pH of 4.4 by UV-Visible spectrophotometer relative to control
[2] = target: Transthyretin (Homo sapiens) (UniProt P02766); assay: Stabilization of wild type human transthyretin expressed in Escherichia coli BL21(DE3) assessed as decrease in TTR-amyloid beta fibril formation at 10 uM preincubated for 6 hrs with transthyretin followed by measuring after 96 hrs maintaining pH of 4.4 by thioflavin T binding assay relative to control

Compound | Activity [1] | inhibition [2]
O=C(O)CCO/N=C/c1ccc(O)cc1O | 38% | 68%
O=C(O)CO/N=C/c1ccccc1O | 100% | –
O=C(O)CCO/N=C/c1ccc(O)cc1 | 17% | Active
O=C(O)CO/N=C/c1ccc(O)cc1 | 59% | –
O=C(O)CO/N=C/c1cc(Br)cc(Br)c1OCC(=O)O | 86% | inactive
O=C(O)CO/N=C/c1cccc(OCC(=O)O)c1 | 100% | inactive
O=C(O)CO/N=C/c1ccc(OCC(=O)O)cc1 | 80% | inactive
O=C(O)CO/N=C/c1cccc(O)c1 | 100% | –
O=C(O)CCO/N=C/c1cccc(O)c1 | 42% | Active
O=C(O)CCO/N=C/c1ccccc1O | 38% | Active
O=C(O)CO/N=C/c1ccccc1OCC(=O)O | 100% | inactive
O=C(O)c1cc(-c2ccc(F)cc2F)ccc1O | 9% | –
O=C(O)CCO/N=C/c1cc(O)cc(O)c1 | 39% | –
O=C(O[C@@H]1Cc2c(O)cc(O)cc2O[C@@H]1c1cc(O)c(O)c(O)c1)c1cc(O)c(O)c(O)c1 | – | 53%
O=C(O)CO/N=C/c1cc(Br)cc(Br)c1O | 35% | –
O=C(O)CCO/N=C/c1cc(Br)cc(Br)c1O | 16% | Active
O=C(O)CCO/N=C/c1ccc(O)c(O)c1 | 34% | –
